Measurements as given in ChEMBL document CHEMBL1201862, “PubChem BioAssay data set” (2004).
Values belong to the molecule of their own block, whether it stands above or below them. Activity calls are given as the source filed them.

Key:
[1] = target: T1, Oxysterols receptor LXR-beta (Homo sapiens, UniProt P55055); assay: LXR agonists, Gal4 luciferase reporter, dose response, counter-screen for ssDAF-12 agonist project, cell-based, luminescence, HEK293, S. stercoralis campaign (AID 720737); format: functional; settings: read-out: IC50 (the source's name)
T1 sequence (P55055 whole entry): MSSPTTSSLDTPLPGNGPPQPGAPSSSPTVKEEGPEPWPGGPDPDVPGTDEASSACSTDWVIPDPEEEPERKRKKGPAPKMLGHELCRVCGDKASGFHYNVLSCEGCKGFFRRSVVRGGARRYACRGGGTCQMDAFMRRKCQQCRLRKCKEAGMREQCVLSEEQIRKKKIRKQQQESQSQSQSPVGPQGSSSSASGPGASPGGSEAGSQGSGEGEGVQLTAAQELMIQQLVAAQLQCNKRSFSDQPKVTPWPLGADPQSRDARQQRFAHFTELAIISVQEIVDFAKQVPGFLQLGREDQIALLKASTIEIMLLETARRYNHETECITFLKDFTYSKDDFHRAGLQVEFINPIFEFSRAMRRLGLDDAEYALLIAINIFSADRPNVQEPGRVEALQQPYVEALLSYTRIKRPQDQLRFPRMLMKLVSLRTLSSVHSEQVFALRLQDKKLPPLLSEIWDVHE

[2] = Luminescence-based cell-based high throughput dose response assay to identify activators of the DAF-12 from the parasite S. stercoralis (ssDAF-12).; format: functional
[3] = target: 1-phosphatidylinositol 4,5-bisphosphate phosphodiesterase gamma-1 (Homo sapiens, UniProt P19174); assay: Counterscreen for inhibitors of phospholipase C isozymes (PLC-B3): Fluorescence-based biochemical high throughput dose response assay to identify inhibitors of phospholipase C isozymes (PLC-gamma1).
[4] = target: 1-phosphatidylinositol 4,5-bisphosphate phosphodiesterase beta-3 (Homo sapiens, UniProt Q01970); assay: Fluorescence-based biochemical high throughput dose response assay to identify inhibitors of phospholipase C isozymes (PLC-B3).
Genome polyprotein = Genome polyprotein (dengue virus type 2, UniProt P29990); assay: flavivirus cap methylation enzyme inhibition – biochemical, confirmation dose response, primary screen (AID 588689); format: functional
[5] = target: COUP transcription factor 2 (Homo sapiens, UniProt P24468); assay: Luminescence-based cell-based high throughput dose response assay to identify inhibitors of COUP-TFII (NR2F2).; format: functional;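 note: HEK293 cells transiently cotransfected with COUP-TFII expression vector and reporter; luciferase reporter luminescence driven by COUP-TFII from the pX2-168 reporter plasmid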
[6] = viability loss in HEK293 cells – cell-based, plate reader, cherry-picked samples, cytotoxicity control, dose response (AID 743446); format: functional
[7] = toxicity toward HepG2 liver cells – cell-based, plate reader, cherry-pick, antagonist series, cytotoxicity control, dose response (AID 743416); format: functional
[8] = A549 cell cytotoxicity, dose response, cytotoxicity control, plate reader, cherry-pick, antagonist series (AID 743412); format: functional, cell-based
[9] = blockade of melanocortin 4 receptor signaling – cell-based, plate reader, cherry pick, counter-screen for LGR2 antagonist project, dose response (AID 743444); format: functional;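 note: transfected HEK 293 cells stimulated with alpha-MSH peptide; potency of inhibitors of the alpha-MSH evoked signal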
[10] = reduction of Shn3 3'UTR-driven luciferase in osteoblasts – cell-based, Clone20 osteoblasts, firefly luciferase, cherry-picked, dose response (AID 624132); format: functional;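 note: firefly luciferase luminescence from reporter carrying the Shn3 3'UTR in osteoblasts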
[11] = blockers of bursicon-stimulated LGR2 cAMP reporter – cell-based, HEK293, CRE-luciferase reporter, cherry pick, set 2, dose response (AID 743343); format: functional;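 note: transfected cells were stimulated with diluted bursicon conditioned medium after compound addition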
[12] = non-specific 3'UTR reporter inhibition in Clone20-Shn3RL – cell-based, Renilla luciferase, cherry-picked, counter-screen for Shn3 inhibitor project, dose response (AID 624133); format: functional
[13] = general mammalian cell viability loss – inhibitor set, cherry-pick, set 2, cytotoxicity control for miR-122 modulator project, dose response (AID 720697); format: functional, cell-based
[14] = Dd2 parasite growth inhibition in erythrocytes – SYBR Green, dry powder samples, set 9, dose response (AID 1159568); format: functional, cell-based
[15] = activation of miR-122 Renilla sensor silencing – cell-based, Huh7 psiCHECK-miR122, Renilla luciferase, cherry-picked, dose response (AID 651956); format: functional;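 note: huh7 hepatoma cells stably carrying a psiCHECK-2 miR-122 sensor plasmid; renilla luciferase signal reporting endogenous miR-122 activity after 48 h compound exposure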
[16] = general mammalian cell viability loss – activator set, cherry-pick, cytotoxicity control for miR-122 modulator project, dose response (AID 720690); format: functional, cell-based;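 note: HEK293T human cells scored for general mammalian cytotoxicity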
[17] = OVCAR-3 cell viability loss – plate reader, dry powder samples, PAX8 inhibitor project, dose response (AID 743044); format: functional, cell-based
Paired box protein Pax-8 = Paired box protein Pax-8 (Homo sapiens, UniProt Q06710); assay: PAX8 transcriptional activity inhibition in RMG-I – RMG-I cells, luciferase, cherry-pick, dose response (AID 687027); format: functional, cell-based;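 note: luciferase reporter driven by Pax8 target thyroperoxidase promoter measured by SteadyGlo luminescence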
[18] = toxicity toward immortalized ovarian surface epithelium – cell-based, plate reader, dry powder samples, cytotoxicity control for PAX8 inhibitor project, dose response (AID 743045); format: functional
[19] = A2780 cell killing – plate reader, dry powder samples, cytotoxicity control, dose response (AID 743046); format: functional, cell-based
[20] = IGROV1 cell killing – plate reader, dry powder samples, PAX8 inhibitor project, dose response (AID 743043); format: functional, cell-based; settings: IGROV-1
[21] = OVCAR8 cell viability loss – plate reader, dry powder samples, PAX8 project, dose response (AID 743197); format: functional, cell-based; settings: OVCAR-8
[22] = toxicity to human hepatoma HepG2 cells – cell-based, cherry-picked samples, cytotoxicity control, dose response (AID 1159577); format: functional
[23] = P. falciparum Dd2 growth inhibitors, dose response, SYBR Green, cherry-picked samples (AID 1159567); format: functional, cell-based
[24] = growth inhibition of PfATP4-mutant resistant parasites – NITD609-resistant line, SYBR Green, dry powder, dose response (AID 1159571); format: functional, cell-based;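 note: parasites synchronized at ring stage by sorbitol before testing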
[25] = Dd2 malaria parasite growth inhibition potency – SYBR Green, dry powder samples, dose response (AID 1159566); format: functional, cell-based;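 note: potency for growth inhibition with lower SYBR green DNA signal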
[26] = growth inhibition of yeast DHODH-expressing 3D7 parasites – SYBR Green, dry powder samples, dose response (AID 1159570); format: functional, cell-based;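 note: parasite growth measured after 72 hours of compound exposure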
[27] = cytotoxicity toward Colo320 cells – cell-based, CellTiter-Glo luminescence, IC50, dose response (AID 1117334); format: functional; settings: COLO 320
[28] = CellTiter-Glo luminescence survival assay, SW480 colon tumor line, concentration-response curve, half-maximal inhibitory concentration (AID 1117338); format: functional
[29] = RKO cell viability reduction, dose response, CellTiter-Glo luminescence (AID 1117322); format: functional
[30] = Reduced DLD-1 viability, concentration-response, CellTiter-Glo luminescence (AID 1117352); format: functional
[31] = cytotoxicity toward HT-29 cells – cell-based, CellTiter-Glo luminescence, IC50, dose response (AID 1117330); format: functional
[32] = SNU-C1 cell viability reduction, dose response, CellTiter-Glo luminescence (AID 1117323); format: functional, cell-based
[33] = cytotoxicity toward HCT116 cells – cell-based, CellTiter-Glo luminescence, IC50, dose response (AID 1117332); format: functional; settings: HCT-116

Chain of Paired box protein Pax-8 (Q06710 whole entry): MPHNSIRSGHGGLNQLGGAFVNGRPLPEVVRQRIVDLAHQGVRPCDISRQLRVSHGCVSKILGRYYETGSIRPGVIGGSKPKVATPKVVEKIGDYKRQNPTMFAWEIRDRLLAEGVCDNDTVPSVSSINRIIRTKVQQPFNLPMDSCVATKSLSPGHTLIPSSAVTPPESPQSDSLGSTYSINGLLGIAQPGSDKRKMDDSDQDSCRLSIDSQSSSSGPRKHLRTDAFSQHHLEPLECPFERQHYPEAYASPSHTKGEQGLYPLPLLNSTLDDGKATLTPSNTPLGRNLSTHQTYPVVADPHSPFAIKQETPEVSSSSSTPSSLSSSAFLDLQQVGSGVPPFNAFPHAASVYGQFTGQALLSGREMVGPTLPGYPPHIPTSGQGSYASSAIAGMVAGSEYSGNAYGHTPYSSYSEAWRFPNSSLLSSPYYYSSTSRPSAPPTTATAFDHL
Chain of Genome polyprotein (P29990 2492-3391 limits assumed): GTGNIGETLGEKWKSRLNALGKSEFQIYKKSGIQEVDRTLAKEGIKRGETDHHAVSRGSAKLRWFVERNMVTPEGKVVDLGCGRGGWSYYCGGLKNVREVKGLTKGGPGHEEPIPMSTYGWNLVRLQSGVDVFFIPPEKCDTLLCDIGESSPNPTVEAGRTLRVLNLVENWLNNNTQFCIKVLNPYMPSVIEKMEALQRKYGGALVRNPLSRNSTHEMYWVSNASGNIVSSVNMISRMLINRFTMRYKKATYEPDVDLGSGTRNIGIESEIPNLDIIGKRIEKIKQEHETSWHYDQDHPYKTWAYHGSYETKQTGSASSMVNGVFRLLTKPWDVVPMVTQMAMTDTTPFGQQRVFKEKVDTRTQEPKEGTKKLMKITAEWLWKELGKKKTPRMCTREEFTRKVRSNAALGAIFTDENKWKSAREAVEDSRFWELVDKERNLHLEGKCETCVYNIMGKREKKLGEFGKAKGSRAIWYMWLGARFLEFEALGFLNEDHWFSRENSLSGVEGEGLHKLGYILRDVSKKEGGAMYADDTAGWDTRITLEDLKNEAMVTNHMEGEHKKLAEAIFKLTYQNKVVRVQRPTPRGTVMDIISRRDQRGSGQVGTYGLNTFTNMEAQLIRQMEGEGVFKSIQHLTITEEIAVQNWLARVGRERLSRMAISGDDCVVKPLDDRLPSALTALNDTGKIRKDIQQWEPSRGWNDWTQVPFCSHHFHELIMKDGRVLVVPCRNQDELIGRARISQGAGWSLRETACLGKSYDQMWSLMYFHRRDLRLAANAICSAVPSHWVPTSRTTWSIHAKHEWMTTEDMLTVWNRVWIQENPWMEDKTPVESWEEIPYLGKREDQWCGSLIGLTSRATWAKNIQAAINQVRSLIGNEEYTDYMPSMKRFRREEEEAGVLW
Chain of 1-phosphatidylinositol 4,5-bisphosphate phosphodiesterase gamma-1 (P19174 whole entry): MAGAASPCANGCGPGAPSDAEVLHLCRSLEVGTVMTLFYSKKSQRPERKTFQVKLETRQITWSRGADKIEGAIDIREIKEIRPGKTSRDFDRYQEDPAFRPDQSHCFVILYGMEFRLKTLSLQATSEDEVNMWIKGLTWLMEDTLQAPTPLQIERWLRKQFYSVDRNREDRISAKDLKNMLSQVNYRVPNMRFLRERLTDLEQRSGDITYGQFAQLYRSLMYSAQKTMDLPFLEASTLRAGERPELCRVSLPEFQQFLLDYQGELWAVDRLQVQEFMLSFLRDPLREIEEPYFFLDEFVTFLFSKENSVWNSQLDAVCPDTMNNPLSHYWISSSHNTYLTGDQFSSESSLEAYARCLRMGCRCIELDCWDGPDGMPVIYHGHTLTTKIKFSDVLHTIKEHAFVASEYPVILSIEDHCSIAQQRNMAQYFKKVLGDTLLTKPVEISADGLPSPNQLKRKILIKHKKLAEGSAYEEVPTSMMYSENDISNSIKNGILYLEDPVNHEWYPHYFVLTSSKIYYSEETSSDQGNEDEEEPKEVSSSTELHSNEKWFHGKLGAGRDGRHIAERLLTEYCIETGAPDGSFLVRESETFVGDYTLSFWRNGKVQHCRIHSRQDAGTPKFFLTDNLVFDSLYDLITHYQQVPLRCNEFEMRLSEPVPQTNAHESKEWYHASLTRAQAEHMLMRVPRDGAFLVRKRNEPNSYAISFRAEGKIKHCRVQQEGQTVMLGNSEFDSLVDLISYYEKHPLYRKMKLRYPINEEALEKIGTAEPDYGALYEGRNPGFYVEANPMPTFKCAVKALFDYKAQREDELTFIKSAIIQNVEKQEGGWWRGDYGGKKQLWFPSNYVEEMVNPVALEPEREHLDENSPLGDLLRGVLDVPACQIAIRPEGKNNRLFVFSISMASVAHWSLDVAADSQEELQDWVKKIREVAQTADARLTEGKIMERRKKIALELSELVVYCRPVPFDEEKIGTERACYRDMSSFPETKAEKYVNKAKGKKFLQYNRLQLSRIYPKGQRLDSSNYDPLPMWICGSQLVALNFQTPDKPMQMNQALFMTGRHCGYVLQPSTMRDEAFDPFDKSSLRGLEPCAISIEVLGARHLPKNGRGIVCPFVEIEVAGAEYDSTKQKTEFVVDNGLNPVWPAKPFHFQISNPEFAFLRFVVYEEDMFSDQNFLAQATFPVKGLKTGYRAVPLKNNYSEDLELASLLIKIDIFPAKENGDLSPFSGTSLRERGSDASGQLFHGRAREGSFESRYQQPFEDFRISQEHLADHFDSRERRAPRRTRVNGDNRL
Chain of 1-phosphatidylinositol 4,5-bisphosphate phosphodiesterase beta-3 (Q01970 whole entry): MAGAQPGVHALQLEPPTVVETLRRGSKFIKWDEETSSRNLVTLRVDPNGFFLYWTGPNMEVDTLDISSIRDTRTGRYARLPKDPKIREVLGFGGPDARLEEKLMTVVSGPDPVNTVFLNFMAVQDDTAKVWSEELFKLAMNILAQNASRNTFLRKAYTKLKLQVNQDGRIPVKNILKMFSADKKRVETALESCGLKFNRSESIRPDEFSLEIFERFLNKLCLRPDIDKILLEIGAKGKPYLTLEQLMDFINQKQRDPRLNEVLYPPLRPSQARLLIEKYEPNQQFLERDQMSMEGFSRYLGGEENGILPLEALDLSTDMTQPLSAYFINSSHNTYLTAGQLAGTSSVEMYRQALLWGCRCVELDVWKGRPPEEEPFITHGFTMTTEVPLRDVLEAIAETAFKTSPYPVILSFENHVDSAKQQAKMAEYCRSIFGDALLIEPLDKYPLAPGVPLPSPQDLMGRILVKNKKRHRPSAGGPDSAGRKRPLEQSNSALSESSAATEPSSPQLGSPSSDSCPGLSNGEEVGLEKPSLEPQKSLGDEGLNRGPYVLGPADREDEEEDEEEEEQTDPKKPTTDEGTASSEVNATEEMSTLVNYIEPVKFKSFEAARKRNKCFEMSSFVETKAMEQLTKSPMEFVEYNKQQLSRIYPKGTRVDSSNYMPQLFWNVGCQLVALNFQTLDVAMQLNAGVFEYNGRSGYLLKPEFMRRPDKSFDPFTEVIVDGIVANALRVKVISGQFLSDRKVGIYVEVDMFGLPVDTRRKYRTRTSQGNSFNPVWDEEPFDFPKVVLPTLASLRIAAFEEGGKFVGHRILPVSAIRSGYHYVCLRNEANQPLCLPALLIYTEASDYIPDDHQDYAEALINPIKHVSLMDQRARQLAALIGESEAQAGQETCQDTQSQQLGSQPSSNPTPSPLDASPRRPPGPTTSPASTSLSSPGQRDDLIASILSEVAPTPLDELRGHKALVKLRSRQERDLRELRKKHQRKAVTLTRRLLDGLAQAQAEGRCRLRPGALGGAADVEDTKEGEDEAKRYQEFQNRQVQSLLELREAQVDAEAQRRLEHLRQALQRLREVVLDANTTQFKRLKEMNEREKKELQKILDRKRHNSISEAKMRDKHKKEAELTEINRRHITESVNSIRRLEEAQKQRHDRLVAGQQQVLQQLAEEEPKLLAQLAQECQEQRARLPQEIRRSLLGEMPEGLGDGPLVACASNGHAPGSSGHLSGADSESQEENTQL
Chain of COUP transcription factor 2 (P24468 whole entry): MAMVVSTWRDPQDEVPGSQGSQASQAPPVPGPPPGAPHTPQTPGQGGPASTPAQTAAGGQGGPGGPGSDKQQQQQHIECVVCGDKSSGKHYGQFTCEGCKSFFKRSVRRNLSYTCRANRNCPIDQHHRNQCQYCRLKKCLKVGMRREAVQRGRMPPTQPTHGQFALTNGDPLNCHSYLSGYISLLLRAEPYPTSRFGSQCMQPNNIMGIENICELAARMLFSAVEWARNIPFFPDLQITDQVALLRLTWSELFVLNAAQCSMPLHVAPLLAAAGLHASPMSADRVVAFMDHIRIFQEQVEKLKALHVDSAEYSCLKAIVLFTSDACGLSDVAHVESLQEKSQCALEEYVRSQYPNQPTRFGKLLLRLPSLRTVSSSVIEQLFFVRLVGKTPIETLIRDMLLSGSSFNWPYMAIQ

SMILES: COc1ccc(C(=O)Nc2ccc3ccccc3c2)c(OC)c1
- EC50 [1]: > 67.5 µM (inactive)
- IC50 [2]: > 67.5 µM (inactive)

- IC50 [3]: > 122 µM (inactive)
- IC50 [4]: > 122 µM (inactive)
SMILES: COC(=O)C1CCCN1C(=O)COc1ccc(Br)cc1Cl (stereo not given)

SMILES: O=C(O)c1[nH]c2ccccc2c1C(c1cc(Br)ccc1O)c1c(C(=O)O)[nH]c2ccccc12
- AC50 (cells): 9.21 µM (active)
- IC50 (Genome polyprotein): 16 µM (active)

SMILES: CC[C@H]1CN2CCc3cc(OC)c(OC)cc3C2C[C@@H]1C[C@H]1NCCc2cc(OC)c(OC)cc21 (stereo not given in full)
- IC50 [5]: 0.209 µM (active)
- AC50 [6]: 0.0731 µM (active)
- AC50 [7]: 0.0959 µM (active)
- AC50 [8]: 0.0576 µM (active)
- AC50 [9]: 0.25 µM (active)
- AC50 [10]: < 0.26 µM (active)
- AC50 [11]: 0.257 µM (active)
- AC50 [12]: < 0.26 µM (active)

SMILES: CN1C(=O)c2cc(NC(=O)c3ccc(C(F)(F)F)cc3)ccc2OC[C@H]2O[C@@H](CC(=O)NCc3ccc4c(c3)OCO4)CC[C@H]21
- AC50 [13]: 7.69 µM (active)
- AC50 [14]: 17.8 µM (active)
- AC50 [15]: 10.9 µM (active)
- AC50 [16]: 16.2 µM (active)

SMILES: C[C@H]1CN([C@@H](C)CO)S(=O)(=O)c2ccc(C#Cc3ccncc3)cc2O[C@@H]1CN(C)C(=O)Nc1ccc2c(c1)OCO2
- AC50 [17]: 1.48 µM (active)
- AC50 (Paired box protein Pax-8): 0.264 µM (active)
- AC50 [18]: 3.88 µM (active)
- AC50 [19]: 1.49 µM (active)
- AC50 [20]: 1.23 µM (active)
- AC50 [21]: 1.89 µM (active)

SMILES: COc1ccc(C#Cc2ccc([C@@H]3[C@H](CO)N4CCCCN(C(=O)Nc5ccc(F)cc5)C[C@@H]34)cc2)cc1
- AC50 (Paired box protein Pax-8): 15.5 µM (active)
- AC50 [19]: 13.9 µM (active)
- AC50 [21]: 41.2 µM (active)

SMILES: COc1ccccc1NC(=O)N1CCCCN2[C@@H](CO)[C@@H](c3ccc(-c4cccc(C)c4)cc3)[C@@H]2C1
- AC50 [17]: 31.6 µM (active)
- AC50 (Paired box protein Pax-8): 13.2 µM (active)
- AC50 [18]: 67.5 µM (active)
- AC50 [20]: 28.4 µM (active)
- AC50 [21]: 68.6 µM (active)
- AC50 [22]: 11.2 µM (active)
- AC50 [23]: 1.43 µM (active)

SMILES: CC1(C)NC(=S)C(C)(C)N1N=O
- EC50 [1]: > 67.5 µM (inactive)
- IC50 [2]: > 67.5 µM (inactive)

SMILES: COc1ccc(NC(=O)N2CC(=O)N3[C@@H](CO)[C@H](c4ccc(C#CCC5CCCC5)cc4)[C@@H]3C2)cc1
- AC50 [24]: 2.84 µM (active)
- AC50 [25]: 2.17 µM (active)
- AC50 [26]: 2.19 µM (active)
- AC50 [22]: > 42 µM (inactive)
- AC50 [23]: 3.79 µM (active)

SMILES: OC[C@H]1[C@@H](c2ccc(-c3cccnc3)cc2)[C@@H]2CN(CC3CC3)CCCCN12
- AC50 [24]: 2.65 µM (active)
- AC50 [25]: 1.8 µM (active)
- AC50 [26]: 1.9 µM (active)
- AC50 [23]: 2.12 µM (active)

SMILES: CCCNC(=O)N1[C@H](C#N)[C@H](c2ccccc2-c2cccc(C)c2)[C@@H]1CO
- AC50 [14]: 7.01 µM (active)

SMILES: CCOC(=O)Oc1ccc(CCNC(=O)[C@H](CCSC)NC(C)=O)cc1OC(=O)OCC [DOCARPAMINE]
- IC50 [27]: > 20 µM (inactive)
- IC50 [28]: > 20 µM (inactive)
- IC50 [29]: > 20 µM (inactive)
- IC50 [30]: > 20 µM (inactive)
- IC50 [31]: > 20 µM (inactive)
- IC50 [32]: > 20 µM (inactive)
- IC50 [33]: > 20 µM (inactive)

SMILES: Cc1c(NC(=O)c2cccnc2)c(=O)n(-c2ccccc2)n1C [NIFENAZONE]
- IC50 [27]: > 20 µM (inactive)
- IC50 [28]: > 20 µM (inactive)
- IC50 [29]: > 20 µM (inactive)
- IC50 [30]: > 20 µM (inactive)
- IC50 [31]: > 20 µM (inactive)
- IC50 [32]: > 20 µM (inactive)
- IC50 [33]: > 20 µM (inactive)
